US8058314B2, “Conductance of improperly folded proteins through the secretory pathway and related methods for treating disease” (Yale University, priority 1999, dated 2011)
Entries after “also recorded” stand apart in the source; their conditions may differ.

How the values were obtained:
[1] = test system: α1-antitrypsin, null (Hong Kong); assay: Secretion of α1-antitrypsin null (Hong Kong) from stably transfected mouse hepatoma cells, pulse-chase; type: cell-based; settings: 1 μM thapsigargin for 3 hours during chase
Procedure: Experiment 2 is repeated using a cell line that expresses a retention mutation for cc1-antitrypsin, such as the secretion-incompetent variant, null (Hong Kong), retained in stably transfected mouse hepatoma cells (J. Biol. Chem. 269:7514-7519 (1994)). Changes in the cell phenotype are assessed by assaying cells for secretion of a 1-antitrypsin (detailed description in J. Biol. Chem. 268:2001-2008 (1993)).
Briefly, cell monolayers are pulse labeled with [^35S] methionine for 30 minutes, after which the radiolabeled media is removed and replaced with media containing an excess of unlabeled methionine. During the chase period, one set of monolayers is treated with 1 μM thapsigargin for 3 hours, while another set is incubated for 3 hours in drug free media. Secretion of α1-antitrypsin into the media is assessed by immunoprecipitation followed by electrophoresis and autoradiography.
Results. Cells expressing the secretion-incompetent variant of α1-antitrypsin, null (Hong Kong), are pulse labeled for 30 minutes with [^35S] methionine, after which they were incubated in non-radioactive media for 3 hours in the presence or absence of 1 μM thapsigargin. After this chase incubation, the media is collected and subjected to immunoprecipitation with anti-α1-antitrypsin antibodies. Immunoprecipitates are analyzed by SDS-PAGE followed by autoradiography.

ΔF508 CFTR mice = assay: Nasal potential difference (NPD) in CF mice homozygous for the ΔF508 mutation; type: in vivo; settings: nebulized 1 μM thapsigargin or 50 microM curcumin, 3 hours/day for 7-14 days
Text: Materials and Methods. CF mice, which were the kind gift of Mitch Drumm, have had the ΔF508 mutation introduced into their endogenous copies of the CFTR gene by homologous recombination and are homozygous for the ΔF508 mutation. Construction of these mice is described in Zeiher, G. B., et al., A mouse model for the delta F508 allele of cystic fibrosis. J. Clin. Invest. 96: 2051-2064, 1995, and additional studies of these mice are described in Steagall W K and Drumm M L, Stimulation of cystic fibrosis transmembrane conductance regulator-dependent short-circuit currents across Delta F508 murine intestines. Gastroenterology, 116(6):1379-88, 1999.
Nasal potential difference was measured essentially as described in Grubb, B. R., Vick, R. N., and Boucher, R. C., Hyperabsorption of Na^+ and raised Ca^2+-mediated Cl^− secretion in nasal epithelia of CF mice, Am. […]
After obtaining a stable baseline reading, infusion of Ringers solution was begun, and recording was initiated. After 5 mins of stable reading, the solution was changed successively to: (i) Ringer solution containing amiloride 10^−5 M; (ii) Ringer solution containing 0 mM chloride and 10^−5 M amiloride; (iii) Ringer solution containing 0 mM chloride, 10^−5 M amiloride, and 10^−5 M isoproterenol. NPD was recorded for each solution for 5 minutes of stable values. […]

## C/C=C(/C)C(=O)O[C@H]1C(C)=C2[C@H]([C@@H]1OC(=O)CCCCCCC)[C@@](C)(OC(C)=O)C[C@H](OC(=O)CCC)[C@@]1(O)[C@H]2OC(=O)[C@@]1(C)O [thapsigargin]
[1]
  radiolabeled α1-antitrypsin in the media: Radiolabeled α1-antitrypsin protein is present in the media
ΔF508 CFTR mice
  basal NPD of treated ΔF508 CF mice: markedly reduced relative to that in untreated CF mice; also recorded: dramatically reduce the basal NPD; also recorded: significantly smaller baseline NPD
